In patent publication US10588962B2, “Carbohydrate-glycolipid conjugate vaccines” (Max-Planck-Gesellschaft zur Förderung der Wissenschaften …, priority 2012, dated 2020):

Assay: Immunogenic activity of further glycolipids conjugated to PS4
Conditions: glycolipid conjugated to PS4

**Q.** Which immunogenic activity does the source give for “(2S,3S,4R)-1-(6-(Carbonyl-1-ethyl-2-(tri(1-ethanoyl)1-ethanoyl-2-amino)-α-D-galactopyranosyl)-2-hexacosanoylaminooctadecane-3,4-diol [Compound 27a]” here?
**A.** Its immunogenic activity is “showed immunogenic activity”.
